In the experiment the target is human GOAT (Homo sapiens (Human), UniProt Q96T53). Put plainly: Determination of hGOAT Activity in HEK293 Cells after Incubation with Test Compound. Type of experiment: cell-based. The conditions noted are these: HEK293 cells stably transfected with preproghrelin and human GOAT; octanoate-BSA 100 μM; acyl-ghrelin in medium by ELISA after 5 hours. The protocol:
Determination of hGOAT Activity in HEK293 Cells after Incubation with Test Compound
HEK293 cells stably transfected with two expression vectors, one coding for preproghrelin cDNA and a second for the expression of human GOATcDNA are used as a cellular model. After feeding the cells with octanoic acid for 5 hours, acyl-ghrelin is measured in cell culture medium by an ELISA procedure.
Cellline: Hek293 hGOAT/PPGhrl Clone #1B8Sodium octanoate, Sigma, Cat.-No. C5038
BD Poly-D-Lysin 384-well Plates, black-clear polystyrene BD Bioscience Cat.-No. […] ELISA human acylated Ghrelin Kit purchased from Bertin Pharman (detailed composition of buffers e.g. wash-puffer, ELISA buffer not known)
Cells are plated with a density of 5000 cells/well in 384-well poly-D-lysin plates and incubated for 1 day at 37° C., 5% CO2 in DMEM medium, 10% FCS, 1×NEAA, Puromycin (0.5 μg/ml) and G418 (1 mg/ml). Then the medium is changed to a identical medium without FCS and containing Octanoate-BSA (final concentration 100 μM each) and compound in DMSO (final DMSO concentration 0.3%). After incubation for 5 hours acylghrelin in the medium is measured by ELISA
The medium sample is diluted 1:25 in Elisa buffer, A 25 ul aliquot is transferred to a 384-well ELISA plate previously washed 4 times with 100 μL wash buffer, and 25 μl tracer-solution is added. After incubation overnight (˜20 h) at 4° C. temperature the plate is washed 4 times with 100 μl wash-buffer per well. Finally 50 μl Ellman's reagent is added to each well and the plate is incubated in the dark for 20 minutes. The absorbance is measured at 405 nm in an Envision multilabel reader and the amount of acylated ghrelin is calculated according to a acylated ghrelin standard curve provided in the same plate.
The analysis of the data is performed by calculation of the percentage of acyl-ghrelin produced in the presence of test compound compared to the amount of acyl-ghrelin produced in the vehicle control samples. An inhibitor of the GOAT enzyme will give values between 100% CTL (no inhibition) and 0% CTL (complete inhibition). IC50 values are calculated with Assay Explorer or other suited software based on curve fitting of results of 8 different compound concentrations.

Data on 31 compounds can be found in US10308667B2, “Oxadiazolopyridine derivatives for use as ghrelin O-acyl transferase (GOAT) inhibitors” (Boehringer Ingelheim International GmbH, priority 2016, dated 2019).

human GOAT, sequence (Q96T53 whole entry): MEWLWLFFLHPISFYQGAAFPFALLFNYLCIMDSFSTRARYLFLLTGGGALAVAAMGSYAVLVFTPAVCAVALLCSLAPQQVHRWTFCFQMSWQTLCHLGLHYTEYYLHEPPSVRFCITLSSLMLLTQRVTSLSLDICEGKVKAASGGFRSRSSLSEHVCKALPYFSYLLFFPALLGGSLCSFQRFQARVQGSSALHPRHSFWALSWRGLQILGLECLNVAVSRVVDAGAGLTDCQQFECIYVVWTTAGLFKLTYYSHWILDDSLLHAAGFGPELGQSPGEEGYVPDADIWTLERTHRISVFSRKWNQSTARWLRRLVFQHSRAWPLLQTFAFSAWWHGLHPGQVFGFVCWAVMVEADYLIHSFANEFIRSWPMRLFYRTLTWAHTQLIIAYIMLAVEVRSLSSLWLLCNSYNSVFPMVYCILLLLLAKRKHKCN

With `Cc1nc2nonc2c(N)c1Cc1ccc(C#N)c(OCC(F)(F)F)n1` [Example 107, 6-(7-Amino-5-methyl-[1,2,5]oxadiazolo[3,4-b]pyridin-6-ylmethyl)-2-(2,2,2-trifluoro-ethoxy)-nicotinonitrile], the IC50 was determined as 0.33 nM.
For the compound `Cc1nc2nonc2c(N)c1Cc1cccc(-c2cncn2C)n1` [Example 59, 5-Methyl-6-[6-(3-methyl-3H-imidazol-4-yl)-pyridin-2-ylmethyl]-[1,2,5]oxadiazolo[3,4-b]pyridin-7-ylamine], the IC50 turned out to be 0.34 nM. The IC50 values of the last two compounds are within 1.5-fold of each other.
In turn, `Cc1nc2nonc2c(N)c1Cc1cccc(C(N)=O)n1` [Example 56, 6-(7-Amino-5-methyl-[1,2,5]oxadiazolo[3,4-b]pyridin-6-ylmethyl)-pyridine-2-carboxylic Acid Amide] showed an IC50 of 0.72 nM.
In turn, `Cc1nc2nonc2c(N)c1Cc1ccc(-n2ccc(C(F)(F)F)n2)c(C#N)n1` [Example 156, 6-(7-Amino-5-methyl-[1,2,5]oxadiazolo[3,4-b]pyridin-6-ylmethyl)-3-(3-trifluoromethyl-pyrazol-1-yl)-pyridine-2-carbonitrile] showed an IC50 of 3.5 nM.
`Cc1nc2nonc2c(N)c1Cc1ccc(Br)c(NC2CC(F)(F)C2)n1` [Example 128, 6-[5-Bromo-6-(3,3-difluoro-cyclobutylamino)-pyridin-2-ylmethyl]-5-methyl-[1,2,5]oxadiazolo[3,4-b]pyridin-7-ylamine]: the IC50 came to 0.096 nM. This IC50 lies about 36-fold lower than the previous one.
Under `Cc1nc2nonc2c(N)c1Cc1ccc(Br)c(OC2COC2)n1` [Example 98, 6-[5-Bromo-6-(oxetan-3-yloxy)-pyridin-2-ylmethyl]-5-methyl-[1,2,5]oxadiazolo[3,4-b]pyridin-7-ylamine] stands 1.9 nM; under `Cc1nc2nonc2c(N)c1Cc1ccc(C#N)c(C2CC2)n1` [Example 43, 6-(7-amino-5-methyl-[1,2,5]oxadiazolo[3,4-b]pyridin-6-ylmethyl)-2-cyclopropylpyridine-3-carbonitrile], 0.37 nM; under `Cc1nc2nonc2c(N)c1Cc1ccc(OC(F)F)c(C(N)=O)n1` [Example 90, 6-(7-Amino-5-methyl-[1,2,5]oxadiazolo[3,4-b]pyridin-6-ylmethyl)-3-difluoromethoxy-pyridine-2-carboxylic Acid Amide], 0.54 nM.
In the case of `Cc1nc2nonc2c(N)c1Cc1ccc(Br)c(OCC2(C)COC2)n1` [Example 95, 6-[5-Bromo-6-(3-methyl-oxetan-3-ylmethoxy)-pyridin-2-ylmethyl]-5-methyl-[1,2,5]oxadiazolo[3,4-b]pyridin-7-ylamine] it was 0.082 nM; in that of `Cc1nc2nonc2c(N)c1Cc1ccc(N2CCOCC2)c(C#N)n1` [Example 152, 6-(7-Amino-5-methyl-[1,2,5]oxadiazolo[3,4-b]pyridin-6-ylmethyl)-3-morpholin-4-yl-pyridine-2-carbonitrile], 0.6 nM.
In turn, `Cc1nc2nonc2c(N)c1Cc1ccc(Br)c(NCC(C)(C)C(N)=O)n1` [Example 124, 3-[6-(7-Amino-5-methyl-[1,2,5]oxadiazolo[3,4-b]pyridin-6-ylmethyl)-3-bromo-pyridin-2-ylamino]-2,2-di methyl-propionamide] gave an IC50 of 0.056 nM.
Under `Cc1nc2nonc2c(N)c1Cc1ccc(OC(F)F)c(C#N)n1` [Example 70, 6-(7-Amino-5-methyl-[1,2,5]oxadiazolo[3,4-b]pyridin-6-ylmethyl)-3-difluoromethoxy-pyridine-2-carbonitrile] stands 0.082 nM; under `Cc1nc2nonc2c(N)c1Cc1cccc(C(=O)N(C)C)n1` [Example 55, 6-(7-Amino-5-methyl-[1,2,5]oxadiazolo[3,4-b]pyridin-6-ylmethyl)-pyridine-2-carboxylic Acid Dimethylamide], 3.9 nM; under `Cc1nc2nonc2c(N)c1Cc1ccc(Br)c(=O)[nH]1` [Example 163, 6-(7-Amino-5-methyl-[1,2,5]oxadiazolo[3,4-b]pyridin-6-ylmethyl)-3-bromo-1H-pyridin-2-one], 2.5 nM.
In the case of `Cc1nc2nonc2c(N)c1Cc1ccc(C#N)c(OC(F)F)n1` [Example 73, 6-(7-Amino-5-methyl-[1,2,5]oxadiazolo[3,4-b]pyridin-6-ylmethyl)-2-difluoromethoxy-nicotinonitrile] it was 0.33 nM.
Under `Cc1nc2nonc2c(N)c1Cc1ccc(C#N)c(NCC(C)(C)C#N)n1` [Example 146, 6-(7-Amino-5-methyl-[1,2,5]oxadiazolo[3,4-b]pyridin-6-ylmethyl)-2-(2-cyano-2,2-dimethyl-ethylamino)-nicotinonitrile] stands 1.1 nM; under `Cc1nc2nonc2c(N)c1Cc1ccc(C#N)c(OCCF)n1` [Example 106, 6-(7-Amino-5-methyl-[1,2,5]oxadiazolo[3,4-b]pyridin-6-ylmethyl)-2-(2-fluoro-ethoxy)-nicotinonitrile], 0.11 nM.
The compound `CSc1cccc(Cc2c(C)nc3nonc3c2N)n1` [Example 16, 5-Methyl-6-(6-methylsulfanyl-pyridin-2-ylmethyl)-[1,2,5]oxadiazolo[3,4-b]pyridin-7-ylamine] showed an IC50 of 0.28 nM.
Consider `Cc1nc2nonc2c(N)c1Cc1ccc(OC2CC2)cn1` [Example 41, 6-[(5-cyclopropoxypyridin-2-yl)methyl]-5-methyl-[1,2,5]oxadiazolo[3,4-b]pyridin-7-amine], for which the IC50 amounted to 1.2 nM. This IC50 is about 4.3-fold higher than that of the compound before.
In the case of `Cc1nc2nonc2c(N)c1Cc1ccc(S(C)(=O)=O)c(S(C)(=O)=O)n1` [Example 160, 6-(5,6-Bis-methanesulfonyl-pyridin-2-ylmethyl)-5-methyl-[1,2,5]oxadiazolo[3,4-b]pyridin-7-ylamine] it was 3 nM; in that of `Cc1nc2nonc2c(N)c1Cc1ccc(Oc2ccccc2)c(C#N)n1` [Example 118, 6-(7-Amino-5-methyl-[1,2,5]oxadiazolo[3,4-b]pyridin-6-ylmethyl)-3-phenoxy-pyridine-2-carbonitrile], 0.085 nM.
In the case of `Cc1nc2nonc2c(N)c1Cc1ncc(C(F)(F)F)c(C#N)n1` [Example 75, 2-(7-amino-5-methyl-[1,2,5]oxadiazolo[3,4-b]pyridin-6-ylmethyl)-5-(trifluoromethyl)pyrimidine-4-carbonitrile] it was 2.7 nM; in that of `Cc1nc2nonc2c(N)c1Cc1ccc(Br)c(N2CC(C)(O)C2)n1` [Example 122, 1-[6-(7-Amino-5-methyl-[1,2,5]oxadiazolo[3,4-b]pyridin-6-ylmethyl)-3-bromo-pyridin-2-yl]-3-methyl-azetidin-3-ol], 0.033 nM.
For the compound `Cc1nc2nonc2c(N)c1Cc1cccc(C2(C#N)CCCC2)n1` [Example 64, 1-[6-(7-Amino-5-methyl-[1,2,5]oxadiazolo[3,4-b]pyridin-6-ylmethyl)-pyridin-2-yl]-cyclopentanecarbonitrile], the half-inhibitory concentration (IC50) worked out at 0.1 nM.
`COC(=O)Cc1ccc(Cc2c(C)nc3nonc3c2N)nc1` [Example 10, [6-(7-Amino-5-methyl-[1,2,5]oxadiazolo[3,4-b]pyridin-6-ylmethyl)-pyridin-3-yl]-acetic Acid Methyl Ester] had a 50% inhibitory concentration (IC50) of 13 nM.
On to `Cc1nc2nonc2c(N)c1Cc1cc(Cl)cc(C#N)n1` [Example 38, 6-(7-amino-5-methyl-[1,2,5]oxadiazolo[3,4-b]pyridin-6-ylmethyl)-4-chloropyridine-2-carbonitrile], for which half-maximal inhibition (IC50) was put at 2.6 nM.
For `Cc1nc2nonc2c(N)c1Cc1ccc(C#N)c(NCCC(F)F)n1` [Example 144, 6-(7-Amino-5-methyl-[1,2,5]oxadiazolo[3,4-b]pyridin-6-ylmethyl)-2-(3,3-difluoro-propylamino)-nicotinonitrile], half-maximal inhibition (IC50) was put at 0.055 nM.
In the case of `Cc1nc2nonc2c(N)c1Cc1cccc(C(C)(C)C#N)n1` [Example 63, 2-[6-(7-Amino-5-methyl-[1,2,5]oxadiazolo[3,4-b]pyridin-6-ylmethyl)-pyridin-2-yl]-2-methyl-propionitrile] it was 0.48 nM.
Under `Cc1nc2nonc2c(N)c1Cc1ccccn1` [Example 58, 5-methyl-6-[(pyridin-2-yl)methyl]-[1,2,5]oxadiazolo[3,4-b]pyridin-7-amine] stands 2.8 nM; under `Cc1nc2nonc2c(N)c1Cc1ccc(C#N)c(F)n1` [Example 72, 6-(7-Amino-5-methyl-[1,2,5]oxadiazolo[3,4-b]pyridin-6-ylmethyl)-2-fluoro-nicotinonitrile], 1.1 nM; under `Cc1nc2nonc2c(N)c1Cc1cccc(C(F)(F)F)n1` [Example 52, 5-Methyl-6-(6-trifluoromethyl-pyridin-2-ylmethyl)-[1,2,5]oxadiazolo[3,4-b]pyridin-7-ylamine], 0.48 nM.
